Laboratory results reported in US20230391727A1, “ANALOGUES OF PENTAMIDINE AND METHODS FOR TREATING INFECTIONS” (Auransa Inc., priority 2020, published 2023).
Values after ≈ are worked out from the molar mass of the structure shown.

What was measured:
[1] = test system: A. baumannii (ATCC 17978); experiment: Checkerboard/MIC assay with rifampicin; assay type: cell-based; details: ATCC17978; substance alone; Acinetobacter baumannii ATCC 17978
Description: (§1) The 17 test strains/isolates were: (1) Serratia marcescens (ATCC 13880); (2) Salmonella typhimurium (ATCC 13311); (3) Salmonella choleraesuis (ATCC 10708); (4) Acinetobacter baumannii (ATCC BAA-1605); (5) A. baumannii (ATCC 17978); (6) A. baumannii (FDA-CDC AR-BANK#0088); (7) Citrobacter freundii (ATCC 8090); (8) Pseudomonas aeruginosa (BCCM 27647); (9) P. aeruginosa (BCCM 27648); (10) Escherichia coli (ATCC 25922); (11) E. coli (ATCC 10536); (12) Stenotrophomonas maltophilia (ATCC 13637); (13) Enterobacter cloacae (ATCC BAA-1143); (14) E. cloacae (ATCC 13047); (15) E. aerogenes (ATCC 13048); (16) Klebsiella pneumoniae (NCTC 13438); and (17) Klebsiella pneumoniae (FDA-CDC AR-BANK#0160). These bacterial strains were obtained from the American Type Culture Collection (ATCC, Rockville, MD, USA); Belgian Coordinated Collections of Microorganisms; The Culture Collections of Public Health England, UK; and FDA-CDC anticimrobial Resistance Isolate Bank, USA, and cryopreserved as single-use frozen working stock cultures which were stored at −80° C.
(§2) The 17 test strains were grown on nutrient agar or tryptic soy agar (TSA) medium as below. Colonies were suspended in phosphate buffered saline (PBS) pH 7.4. The absorbance of the bacterial suspension was measured with a spectrophotometer at OD620nm, and then the suspension was adjusted to 1-2×10^8 CFU/mL in PBS. The adjusted suspension was further diluted 1:500 in cation-adjusted Mueller-Hinton Broth. Each well contained approximately 5×10^5 CFU/mL. […] The testing inoculum was prepared within minutes before adding to wells of the test plate.
(§3) Compound 3 was tested in 8 points by two-fold serial titrations from 100 to 0.78 μg/mL. […] Assay plates were incubated and MIC endpoints were read as complete inhibition of visual growth. The checkerboard combination analysis was performed following the MIC testing protocol to identify potential synergistic, indifferent or antagonistic interactions. The analysis also included each test substance alone at the same concentration ranges.
(§4) FIC (Fraction Inhibitory Concentration) and FIC Index (FICI) values for each test condition and the average of FICI values of all pairwise combinations were calculated to determine if synergy or antagonism existed between the two substances. The FIC index was determined by calculating the sum of the ratios of MICs (minimum inhibitory concentrations) for both substances. […] Synergy is defined as the FICI (Σ)≤0.5; additivity or indifference are defined as the FICI (Σ)>0.5 to ≤4; antagonism is defined as the FICI (Σ)>4. The two fold of highest test article concentration was used for FIC value calculations in the circumstances where MIC values were greater than the highest test article concentration.

[2] = test system: A. baumannii (FDA-CDC AR-BANK#0088); experiment: Checkerboard/MIC assay with rifampicin; assay type: cell-based; details: substance alone; Acinetobacter baumannii AR-BANK 0088
Description: as §1, §2, §3, §4

[3] = test system: Acinetobacter baumannii (ATCC BAA-1605); experiment: Checkerboard/MIC assay with rifampicin; assay type: cell-based; details: substance alone; Acinetobacter baumannii BAA-1605
Description: as §1, §2, §3, §4

[4] = test system: Citrobacter freundii (ATCC 8090); experiment: Checkerboard/MIC assay with rifampicin; assay type: cell-based; details: ATCC8090, substance alone
Description: as §1, §2, §3, §4

[5] = test system: E. aerogenes (ATCC 13048); experiment: Checkerboard/MIC assay with rifampicin; assay type: cell-based; details: Klebsiella aerogenes, ATCC13048; substance alone; Enterobacter aerogenes ATCC-13048
Description: as §1, §2, §3, §4

[6] = test system: E. cloacae (ATCC 13047); experiment: Checkerboard/MIC assay with rifampicin; assay type: cell-based; details: ATCC13047; substance alone; Enterobacter cloacae ATCC-13047
Description: as §1, §2, §3, §4

[7] = test system: E. coli (ATCC 10536); experiment: Checkerboard/MIC assay with rifampicin; assay type: cell-based; details: ATCC10536; substance alone; Escherichia coli ATCC 10536
Description: as §1, §2, §3, §4

[8] = test system: Enterobacter cloacae (ATCC BAA-1143); experiment: Checkerboard/MIC assay with rifampicin; assay type: cell-based; details: substance alone; Enterobacter cloacae BAA-1143
Description: as §1, §2, §3, §4

[9] = test system: Escherichia coli (ATCC 25922); experiment: Checkerboard/MIC assay with rifampicin; assay type: cell-based; details: ATCC25922, substance alone
Description: as §1, §2, §3, §4

[10] = test system: Klebsiella pneumoniae (FDA-CDC AR-BANK#0160); experiment: Checkerboard/MIC assay with rifampicin; assay type: cell-based; details: substance alone; Klebsiella pneumoniae AR-BANK#0160
Description: as §1, §2, §3, §4

[11] = test system: Klebsiella pneumoniae (NCTC 13438); experiment: Checkerboard/MIC assay with rifampicin; assay type: cell-based; details: NCTC13438, substance alone
Description: as §1, §2, §3, §4

[12] = test system: P. aeruginosa (BCCM 27648); experiment: Checkerboard/MIC assay with rifampicin; assay type: cell-based; details: substance alone; Pseudomonas aeruginosa BCCM27648
Description: as §1, §2, §3, §4

[13] = test system: Pseudomonas aeruginosa (BCCM 27647); experiment: Checkerboard/MIC assay with rifampicin; assay type: cell-based; details: substance alone; Pseudomonas aeruginosa BCCM27647
Description: as §1, §2, §3, §4

[14] = test system: Salmonella choleraesuis (ATCC 10708); experiment: Checkerboard/MIC assay with rifampicin; assay type: cell-based; details: Salmonella enterica
Description: as §1, §2, §3, §4

[15] = test system: Salmonella typhimurium (ATCC 13311); experiment: Checkerboard/MIC assay with rifampicin; assay type: cell-based; details: Salmonella enterica; substance alone; Salmonella typhimurium ATCC13311
Description: as §1, §2, §3, §4

[16] = test system: Serratia marcescens (ATCC 13880); experiment: Checkerboard/MIC assay with rifampicin; assay type: cell-based; details: ATCC13880, substance alone
Description: as §1, §2, §3, §4

[17] = test system: Stenotrophomonas maltophilia (ATCC 13637); experiment: Checkerboard/MIC assay with rifampicin; assay type: cell-based; details: ATCC13637, substance alone
Description: as §1, §2, §3, §4

[18] = test system: S. aureus ATCC 27660; experiment: MIC assay against gram positive S. aureus; assay type: cell-based; details: Staphylococcus aureus, ATCC27660
Protocol: (§5) Then the compound stocks were serially 2-fold diluted in a v-bottom 96-well plate to make 100-fold working solutions. One day before the test, −80° C. glycerol stock of S. aureus strains were streaked on cation-adjusted Mueller-Hinton agar (CAMHA) plates. On the day of test, fresh bacterial colonies were suspended into sterile saline to an OD600 nm of ˜0.1 (equivalent to 0.5 McFarland). The bacterial suspension was firstly 20-fold followed by 50-fold diluted in cation-adjusted Mueller-Hinton broth (CAMHB) plates to 1×10^6 CFU/PO. 198 ul of the inoculum was added into the round-bottom 96-well plates prefilled with 2 ul of 100-fold compound working solutions. After incubating at 35 +/−2° C. in ambient atmosphere for 18-24 h, MIC was recorded as the lowest concentration under which no visible bacterial growth was observed.

[19] = test system: S. aureus ATCC 43300; experiment: MIC assay against gram positive S. aureus; assay type: cell-based; details: Staphylococcus aureus, ATCC43300
Protocol: as §5

[20] = test system: A. baumannii ATCC 17978; experiment: Checkerboard assay with novobiocin (FIGS. 2, 3, 5, 6); assay type: cell-based, Acinetobacter baumannii; details: for MIC: Acinetobacter baumannii, ATCC17978, substance alone
Description: Novobiocin is an anti-staphylococcal drug, but with limited use. The oral form of novobiocin drug has since been withdrawn from the market due to lack of efficacy. This antibiotic is often used to treat Staphylococcus aureus infection, particularly methicillin resistant S. aureus “MRSA”.

[21] = test system: NCI H69 cells; experiment: CellTiter-Glo cell viability assay (cytotoxicity), 8 days; assay type: cell-based; details: Homo sapiens, 192 h, full growth media
Protocol: The experiment tested pentamidine, Compounds 1-6 in full growth media for 8 days. NCI H69 cells were initially treated with the test compounds on Day 0, and the cells were then replenished with fresh compound dilutions on Day 3. Pentamidine and Compound 1 were tested at 9 concentration points: 100 μM, 33.33 μM, 11.11 μM, 3.70 μM, 1.23 μM, […], 0.05 μM, and 0.02 μM (final DMSO concentration=0.5%). The raw data values from the CellTiter-Glo™ cell viability assay expressed in relative luminescence units were normalized to the vehicle for each individual plate, and any reduction in luminescence indicated a decrease in viability (%). The data was analyzed in GraphPad PRISM using a non-linear sigmoidal plot with variable slope (asymmetric four-point […]), and an IC50 value for each compound was generated based on the normalized dose-response curves and shown in Table 1.

SMILES: CO[C@H]1/C=C/O[C@@]2(C)Oc3c(C)c(O)c4c(O)c(c(/C=N/N5CCN(C)CC5)c(O)c4c3C2=O)NC(=O)/C(C)=C\C=C\[C@H](C)[C@H](O)[C@@H](C)[C@@H](O)[C@@H](C)[C@H](OC(C)=O)[C@@H]1C [Rifampicin, reference compound]
- MIC [1]: 6.25 µg/mL
- MIC [2]: 3.12 µg/mL
- MIC [3]: 3.12 µg/mL
- MIC [4]: > 12.5 µg/mL
- MIC [5]: > 12.5 µg/mL
- MIC [6]: > 12.5 µg/mL
- MIC [7]: 3.12 µg/mL
- MIC [8]: > 12.5 µg/mL
- MIC [9]: 6.25 µg/mL
- MIC [10]: > 12.5 µg/mL
- MIC [11]: > 12.5 µg/mL
- MIC [12]: > 12.5 µg/mL
- MIC [13]: > 12.5 µg/mL
- MIC [14]: 12.5 µg/mL
- MIC [15]: > 12.5 µg/mL
- MIC [16]: > 12.5 µg/mL
- MIC [17]: 6.25 µg/mL

SMILES: N=C(N)c1ccc(OCCCCCOc2ccc(C(=N)N)cc2)cc1 [Pentamidine, 1,5-bis(4-amidinophenoxy)pentane]
- MIC [18]: 16 µg/mL (≈ 47 µM)
- MIC [19]: 64 µg/mL (≈ 188 µM)

SMILES: CO[C@@H]1[C@@H](OC(N)=O)[C@@H](O)[C@H](Oc2ccc3c(O)c(NC(=O)c4ccc(O)c(CC=C(C)C)c4)c(=O)oc3c2C)OC1(C)C [novobiocin, reference compound]
- MIC [20]: > 18.9 µM
- MIC of novobiocin when FICI is calculated ([20]; value used for FICI calculation): 37.8 µM

SMILES: N=C(N)c1ccc(CC[C@@H]2CCC[C@H](CCc3ccc(C4CCNC4)cc3)C2)cc1 (stereo partly drawn) [Compound 5, 4-(2-((1S,3R)-3-(4-(pyrrolidin-3-yl)phenethyl)cyclohexyl)ethyl)benzimidamide]
- IC50 [21]: 1.46 µM
- MIC [18]: 8 µg/mL (≈ 19.8 µM)
- MIC [19]: 8 µg/mL (≈ 19.8 µM)

SMILES: Nc1nccc2ccc(CCCCCCCc3ccc4ccnc(N)c4c3)cc12 [Compound 7, 7,7′-(heptane-1,7-diyl)bis(isoquinolin-1-amine)]
- IC50 [21]: 1.15 µM
- synergistic effect with novobiocin [20]: no synergistic effect
- MIC [20]: 8.13 µM

SMILES: N=C(N)c1ccc(CCCCCCCc2ccc(C3CCNC3)cc2)cc1 (stereo not drawn) [Compound 8, 4-(7-(4-(pyrrolidine-3-yl)phenyl)heptyl)benzimidamide]
- IC50 [21]: 1.92 µM
- synergy with novobiocin as compared to pentamidine with novobiocin [20]: increased synergy
- MIC [20]: > 34.4 µM

SMILES: N=C(N)c1cccc(CC[C@H]2CCC[C@@H](CCc3cccc(C(=N)N)c3)C2)c1 [Compound 6, 3,3′-(((1R,3S)-cyclohexane-1,3-diyl)bis(ethane-2,1-diyl))dibenzimidamide]
- IC50 [21]: 0.33 µM

SMILES: N=C(N)c1ccc(CC[C@@H]2CCC[C@@H](CCc3ccc(C(=N)N)cc3)C2)cc1 [Compound 4, 4,4′-(2,2′-((1R,3R)-cyclohexane-1,3-diyl)bis(ethane-2,1-diyl))dibenzimidamide]
- IC50 [21]: 0.75 µM

SMILES: N=C(N)c1cccc(CCCCCCCc2cccc(C(=N)N)c2)c1 [Compound 1, 3,3′-(heptane-1,7-diyl)dibenzimidamide]
- IC50 [21]: 0.31 µM
- synergistic effect with novobiocin [20]: clear synergistic effects
- synergy with novobiocin as compared to pentamidine with novobiocin [20]: superior synergy
- MIC [20]: 149 µM
